Measured values published in patent US11344567B2, “Methods of treating cancer using platanoside and isomers thereof” (SHARE GAL RESEARCH AND DEVELOPMENT LTD, priority 2018, dated 2022).

Assays:
HT-29 cell line = assay: 3D spheroid tumor formation and growth; type: cell-based, human; conditions: for effect on growing tumors, treatment after spheroid formation: HT-29 spheroids, single dose 72 h after seeding, for additional 72 hours; for effect on tumor formation, treatment before tumor formation: 150 µM
Procedure: The spheroid formation potential of HT29 human colon cancer cell line was evaluated in 3D nonadherent culture condition. Initially the HT29 human cells were grown as a monolayer after which they were counted, re-suspended and plated with 1,500 cells per well in a 96-well plate pre-coated with a thin layer of 1.5% agarose (w/v) in McCoy's 5A medium containing 10% FBS and incubated at 37° C. in a humidified atmosphere of 5% CO2. Cell culture media was replaced every 2-3 days with fresh medium to remove cellular debris and the spheroids that were not well-formed. After the beginning of the multicellular tumor spheroid formation, the tested compounds were added at various concentrations (0.2, 0.4 and 0.6 mg/ml) and incubated for 24, 48 and 72 h. The number and diameter of colonies within each well were photographed and counted every day under the microscope (Olympus BX-51; Olympus, Hamburg, Germany), and the images of the representative fields were captured. Each sample was analyzed in triplicate, and all the experiments were performed three times. The viability of cells growing on the spheroids was measured by the APH (acid phosphatase) assay, which was performed according to manufacturer's instructions.
The cellular assays described above were performed in a monolayer system. Although monolayer systems partially reflect the microenvironment of cancer cells, there are currently more advanced culture methods that mimic in a better way the cellular interactions by the cells comprising the tumor (Freidrich, J. et. al.; Nat. Prot. 2009, 4, 309-324). […] This assay can be applied to test whether the compounds treatment is able of impairing tumors formation or alternately to test the effect of the treatment in growing tumors. HT-29 cell line was used for this model due to its capacity to form spheroids in vitro.

[1] = system: methicillin-resistant Staphylococcus aureus; conditions: Ibrahim et al. 2009; cited from earlier work
leukemia = conditions: Dimas et al. 2000; cited from earlier work

Structure (SMILES): CCc1c2c(nc3ccc(OC(=O)N4CCC(N5CCCCC5)CC4)cc13)-c1cc3c(c(=O)n1C2)COC(=O)[C@]3(O)CC [irinotecan]
- effect on growing tumors, treatment after spheroid formation (HT-29 cell line): didn't generate any effect

Structure (SMILES): O=C(O)/C=C/c1ccc(O)cc1 [p-coumaric acid]
- effect on tumor formation, treatment before tumor formation (HT-29 cell line): no effect

Structure (SMILES): O=C1C[C@@H](c2ccc(O)cc2)Oc2cc(O)cc(O)c21 [naringenin]
- effect on tumor formation, treatment before tumor formation (HT-29 cell line): no effect

Structure (SMILES): C[C@@H]1O[C@@H](Oc2c(-c3ccc(O)cc3)oc3cc(O)cc(O)c3c2=O)[C@H](OC(=O)/C=C/c2ccc(O)cc2)[C@H](OC(=O)/C=C/c2ccc(O)cc2)[C@H]1O [Platanoside, platanoside]
- anti-methicillin-resistant Staphylococcus aureus activity [1]: anti-methicillin-resistant Staphylococcus aureus
- anti-leukemic activity (leukemia): active as an anti-leukemic agent

Structure (SMILES): N.N.O=C([O-])C1(C(=O)[O-])CCC1.[Pt+2] [carboplatin]
- effect on growing tumors, treatment after spheroid formation (HT-29 cell line): didn't generate any effect
